# Laboratory results taken from ChEMBL document CHEMBL1137325, “Multitarget-directed drug design strategy: a novel molecule designed to block epidermal growth factor receptor (EGFR) and to exert proapoptotic effects” (J Med Chem, 2006).
# pIC50: −log10 of the molar value. Calls of active or inactive are those of the source. No cut-off for these calls is given here.
# What was measured:
# [1] = system: A-431; experiment: Reversibility of antiproliferative activity against human A431 cells after recovery for 68 hrs by MTT assay; conditions: A-431, 68 h
# [2] = system: A-431; experiment: Induction of necrosis in human A431 cells measured as increase of LDH release; assay type: functional, cell-based
# [3] = system: A-431; experiment: Antiproliferative activity against human A431 cells after 72 hrs by MTT assay; conditions: A-431, 72 h
# [4] = system: A-431; experiment: Reversibility of antiproliferative activity against human A431 cells after recovery for 68 hrs in presence of 50 uM DTT by MTT assay; conditions: A-431, 68 h
# [5] = system: A-431; experiment: Reversibility of antiproliferative activity against human A431 cells after recovery for 68 hrs in presence of 100 uM DTT by MTT assay; conditions: A-431, 68 h
# [6] = system: A-431; experiment: Induction of apoptosis in human A431 cells measured as increase in DNA fragmentation; assay type: functional, cell-based
# [7] = target: Epidermal growth factor receptor (Homo sapiens, UniProt P00533); experiment: Inhibition of EGFR tyrosine kinase activity
# Chain of Epidermal growth factor receptor (P00533 whole entry): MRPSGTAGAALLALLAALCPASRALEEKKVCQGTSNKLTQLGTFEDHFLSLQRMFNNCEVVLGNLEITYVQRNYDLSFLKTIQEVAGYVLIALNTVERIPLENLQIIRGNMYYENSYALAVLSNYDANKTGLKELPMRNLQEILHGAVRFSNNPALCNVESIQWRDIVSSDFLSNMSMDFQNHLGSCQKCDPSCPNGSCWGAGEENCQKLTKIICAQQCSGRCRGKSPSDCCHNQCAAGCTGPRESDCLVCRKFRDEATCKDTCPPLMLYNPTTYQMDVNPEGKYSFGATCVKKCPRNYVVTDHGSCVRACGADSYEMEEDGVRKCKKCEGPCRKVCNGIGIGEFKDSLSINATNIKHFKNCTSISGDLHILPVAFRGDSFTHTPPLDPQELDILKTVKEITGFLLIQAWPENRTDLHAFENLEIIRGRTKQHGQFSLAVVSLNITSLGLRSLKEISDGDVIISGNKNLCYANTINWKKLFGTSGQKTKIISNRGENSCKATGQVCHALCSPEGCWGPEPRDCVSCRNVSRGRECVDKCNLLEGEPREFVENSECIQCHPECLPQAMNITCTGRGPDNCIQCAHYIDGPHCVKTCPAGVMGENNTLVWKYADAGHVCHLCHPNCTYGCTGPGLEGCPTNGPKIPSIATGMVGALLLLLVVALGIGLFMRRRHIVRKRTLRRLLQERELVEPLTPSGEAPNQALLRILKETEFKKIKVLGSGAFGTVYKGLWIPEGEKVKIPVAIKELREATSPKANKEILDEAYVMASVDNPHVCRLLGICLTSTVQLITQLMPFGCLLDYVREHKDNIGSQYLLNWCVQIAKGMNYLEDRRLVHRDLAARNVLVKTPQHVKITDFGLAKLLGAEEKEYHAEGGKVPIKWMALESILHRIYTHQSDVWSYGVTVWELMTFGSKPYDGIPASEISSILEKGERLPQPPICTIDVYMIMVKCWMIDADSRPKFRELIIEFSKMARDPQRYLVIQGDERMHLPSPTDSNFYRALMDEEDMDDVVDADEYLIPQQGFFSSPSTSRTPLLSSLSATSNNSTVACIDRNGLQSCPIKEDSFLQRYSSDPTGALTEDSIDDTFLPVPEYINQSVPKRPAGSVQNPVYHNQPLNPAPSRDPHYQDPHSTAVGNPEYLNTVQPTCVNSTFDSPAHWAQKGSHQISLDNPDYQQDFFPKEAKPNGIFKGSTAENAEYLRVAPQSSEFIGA
Compound,pIC50 [1],Activity [2],pIC50 [3],pIC50 [4],pIC50 [5],Activity [6],pIC50 [7]
O=C(Nc1ccc2ncnc(Nc3cccc(Br)c3)c2c1)C1CCSS1 (stereo not drawn),5.03,inactive,5.10,4.65,4.55,Dose-dependent effect,7.22
COc1cc2ncnc(Nc3cccc(Br)c3)c2cc1OC,,inactive,,,,,
O=C(CCCCC1CCSS1)Nc1ccc2ncnc(Nc3cccc(Br)c3)c2c1 (stereo not drawn),,,4.67,,,,< 5.52
C=CC(=O)Nc1ccc2ncnc(Nc3cccc(Br)c3)c2c1,,inactive,,,,,
O=C(CC1CCSS1)Nc1ccc2ncnc(Nc3cccc(Br)c3)c2c1 (stereo not drawn),,,4.86,,,,< 5.52
